{"source": "patent US8846569B2", "about": "“Pesticidal bis-organosulfur compounds” (Merial Limited, priority 2009, dated 2014)", "format_in_all_cases": "in vivo", "key": {"[1]": {"system": "Plutella xylostella", "assay": "Diamond back moth (Plutella xylostella) stomach poison leaf dip test", "settings": "for activity in [%]: 10 ppm, scale 0% no biological activity to 100% total control", "procedure": "The test solution is prepared at the day of use.\nLeaves of Chinese cabbage are dipped in test solution and air-dried. Treated leaves are placed in petri dished lined with moist filter paper. Mortality is recorded 24, 72, and 120 hours after treatment.\nThe biological tests were conducted as described above."}, "[2]": {"system": "Myzus persicae", "assay": "Green peach aphid (Myzus persicae) artificial diet test", "settings": "72 h, 2500 ppm, adult aphids on treated artificial diet, 3 days, read-out: mortality in comparison with untreated controls", "text": "For evaluating control of green peach aphid (Myzus persicae) the test unit consisted of 96-well-microtiter plates containing liquid artificial diet under an artificial membrane.\nThe compounds were formulated using a solution containing 75% v/v water and 25% v/v DMSO. Different concentrations of formulated compounds were pipetted into the aphid diet, using a custom built pipetter, at two replications.\nAfter application, 5-8 adult aphids were placed on the artificial membrane inside the microtiter plate wells. The aphids were then allowed to suck on the treated aphid diet and incubated at about 23±1° C. and about 50±5% relative humidity for 3 days. Aphid mortality and fecundity was then visually assessed."}, "[3]": {"system": "Megoura viciae", "assay": "Vetch aphid (Megoura viciae) leaf disk test", "settings": "foliar, 120 h, 2500 ppm, adult aphids on sprayed broad bean leaf disks, 5 days, read-out: mortality in comparison with untreated controls", "procedure": "For evaluating control of vetch aphid (Megoura viciae) through contact or systemic means the test unit consisted of 24-well-microtiter plates containing broad bean leaf disks.\nThe compounds were formulated using a solution containing 75% v/v water and 25% v/v DMSO. Different concentrations of formulated compounds were sprayed onto the leaf disks at 2.5 μl, using a custom built micro atomizer, at two replications.\nAfter application, the leaf disks were air-dried and 5-8 adult aphids placed on the leaf disks inside the microtiter plate wells. The aphids were then allowed to suck on the treated leaf disks and incubated at about 23±1° C. and about 50±5% relative humidity for 5 days. Aphid mortality and fecundity was then visually assessed."}, "[4]": {"system": "Ceratitis capitata", "assay": "Mediterranean fruitfly (Ceratitis capitata) diet/egg test", "settings": "120 h, 2500 ppm, egg and larval mortality, 5 days, read-out: mortality in comparison with untreated controls", "procedure": "For evaluating control of Mediterranean fruitfly (Ceratitis capitata) the test unit consisted of microtiter plates containing an insect diet and 50-80 C. capitata eggs.\nThe compounds were formulated using a solution containing 75% v/v water and 25% v/v DMSO. Different concentrations of formulated compounds were sprayed onto the insect diet at 5 nl, using a custom built micro atomizer, at two replications.\n(§1) After application, microtiter plates were incubated at about 28±1° C. and about 80±5% relative humidity for 5 days. Egg and larval mortality was then visually assessed."}, "[5]": {"system": "Anthonomus grandis", "assay": "Boll weevil (Anthonomus grandis) diet/egg test", "settings": "120 h, 2500 ppm, egg and larval mortality, 5 days, read-out: mortality in comparison with untreated controls", "procedure": "For evaluating control of boll weevil (Anthonomus grandis) the test unit consisted of 24-well-microtiter plates containing an insect diet and 20-30 A. grandis eggs.\nThe compounds were formulated using a solution containing 75% v/v water and 25% v/v DMSO. Different concentrations of formulated compounds were sprayed onto the insect diet at 20 μl, using a custom built micro atomizer, at two replications.\nAfter application, microtiter plates were incubated at about 23±1° C. and about 50±5% relative humidity for 5 days. Egg and larval mortality was then visually assessed."}, "[6]": {"system": "Heliothis virescens", "assay": "Tobacco budworm (Heliothis virescens) diet/egg test", "procedure": "For evaluating control of tobacco budworm (Heliothis virescens) the test unit consisted of 96-well-microtiter plates containing an insect diet and 15-25 H. virescens eggs.\nThe compounds were formulated using a solution containing 75% v/v water and 25% v/v DMSO. Different concentrations of formulated compounds were sprayed onto the insect diet at 10 μl, using a custom built micro atomizer, at two replications.\nas §1\nThe biological activity shown tables under CB.1 and CB.2 was evaluated on scale range from 0% as showing no biological activity to 100% as having total control. The biological tests were conducted as described above."}, "[7]": {"system": "Aedes aegypti", "assay": "Aedes aegypti neonate larvae motility assay", "settings": "larval motility, dose response", "procedure": "Compounds formulated in 100% DMSO are tested in microtiter plates containing 180 ul 1× Luria Broth media and 10 neonate A. aegypti larvae. The efficacy of a compound is determined based on the motility of the larvae as compared to average motility of control wells containing DMSO only. A dose response assay is conducted with compounds with >80% reduction in motility in the primary assay to determine an EC50 value. Selected compounds are advanced to insecticide secondary assays."}}, "data": [{"smiles": "CC(C#N)(CCC(F)(F)F)S(=O)(=O)CCC(F)(F)C(F)(F)F", "note": "(stereo not shown) [CE. 2, reference compound]", "values": [{"measurement": "activity in [%]", "setting": "[1]", "result": 0, "unit": "%"}]}, {"smiles": "N#CC(CCSC(F)(F)F)S(=O)(=O)CCC(F)(F)C(F)(F)F", "note": "(stereo not shown) [II-1, 2-(3,3,4,4,4-Pentafluoro-butane-1-sulfonyl)-4-trifluoromethylsulfanyl-butyronitrile]", "values": [{"measurement": "mortality at 2500 ppm", "setting": "[2]", "result": "> 90", "unit": "%"}, {"measurement": "mortality at 2500 ppm", "setting": "[3]", "result": "> 90", "unit": "%"}, {"measurement": "mortality at 2500 ppm", "setting": "[4]", "result": "> 90", "unit": "%"}, {"measurement": "mortality at 2500 ppm", "setting": "[5]", "result": "> 90", "unit": "%"}, {"measurement": "activity in [%]", "setting": "[6]; 800 ppm, scale 0% no biological activity to 100% total control", "result": 100, "unit": "%"}, {"measurement": "mortality at 2500 ppm", "setting": "[6]; Heliothis virescens, 120 h, 2500 ppm, egg and larval mortality, 5 days, read-out: mortality in comparison with untreated controls", "result": "> 90", "unit": "%"}, {"measurement": "mortality at 500 ppm", "setting": "[1]; Plutella xylostella, foliar, 500 ppm, dipped Chinese cabbage leaves, stomach poison, read-out: mortality in comparison with untreated controls", "result": "> 90", "unit": "%"}, {"measurement": "EC50", "setting": "[7]", "result": "< 5", "unit": "µg/mL"}]}, {"smiles": "CC(C#N)(CCSC(F)(F)F)S(=O)(=O)CCC(F)(F)C(F)(F)F", "note": "(stereo not shown) [II-2, 2-Methyl-2-(3,3,4,4,4-pentafluoro-butane-1-sulfonyl)-4-trifluoromethyl-sulfanyl-butyronitrile]", "values": [{"measurement": "activity in [%]", "setting": "[1]", "result": 100, "unit": "%"}]}]}
